Laboratory results from PubChem BioAssay (NCI).
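All cell lines were grown in 96-well plates and treated with compound for 48 hours. GI50: concentration for 50% inhibition of growth. At the TGI there is no net growth.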

Key:
Test in all cases: DTP human tumour cell line panel, 48 h
[1] = test system: SNB-75 CNS
[2] = test system: SF-268 CNS
[3] = test system: TK-10 renal
[4] = test system: EKVX NSCLC
[5] = test system: K-562 leukemia
[6] = test system: SN12C renal
[7] = test system: COLO 205 colon
[8] = test system: A549 NSCLC
[9] = test system: BT-549 breast
[10] = test system: MDA-MB-231 breast

Row | SMILES | TGI [1] | TGI [2] | TGI [3] | TGI [4] | TGI [5] | TGI [6] | TGI [7] | TGI [8] | GI50 [9] | TGI [9] | GI50 [2] | GI50 [3] | GI50 [4] | GI50 [10] | TGI [10] | GI50 [5] | GI50 [6] | GI50 [7] | GI50 [8] | GI50 [1]
1 | Cc1ccc(-c2c(N)nc(NC#N)nc2CCC(=O)Nc2ccccc2[N+](=O)[O-])cc1 | > 100 µM | > 100 µM | > 100 µM | > 100 µM | > 100 µM | > 100 µM | > 100 µM | > 100 µM |  |  |  |  |  |  |  |  |  |  |  | 
2 | Cc1ccn2c3c(c(C(=O)O)c2c1)C(=O)c1ccccc1C3=O |  | > 100 µM | > 100 µM | > 100 µM | > 100 µM | > 100 µM | 8.75 µM | 4.4 µM | 3.9 µM | 53.6 µM | > 100 µM | > 100 µM | 48 µM | 11.8 µM | > 100 µM | > 100 µM | 7.97 µM | 2.62 µM | 1.77 µM | 
3 | Oc1ccccc1/C=N/Nc1ccc2ccccc2n1 | 20.4 µM | 69.3 µM | 77.5 µM |  | > 100 µM | > 100 µM | > 100 µM | > 100 µM | 8.08 µM | > 100 µM | 3.09 µM | 7.69 µM |  | 3.35 µM | > 100 µM | 3.18 µM | 4.92 µM | 3.66 µM | 5.33 µM | 2.01 µM
4 | COc1c(C2CC(=O)Nc3c2cnn3Cc2ccco2)cc2c(c1OC)OCO2 (stereo unspecified) | > 100 µM | > 100 µM | > 100 µM |  | > 100 µM | > 100 µM | 2.86 µM | > 100 µM | 1.1 µM | > 100 µM | 1.58 µM | 11.3 µM |  | 1.67 µM | > 26.4 µM | 0.434 µM | 1.94 µM | 0.332 µM | 0.61 µM | 0.295 µM
5 | O=C1NC2(CCCC2)C(=O)C12CCCC2 | > 100 µM | > 100 µM | > 100 µM | > 100 µM | > 100 µM | > 100 µM | > 100 µM | > 100 µM |  |  |  |  |  |  |  |  |  |  |  | 
6 | C=CC1=CSNN1 | > 100 µM | > 100 µM | > 100 µM | > 100 µM | > 100 µM | > 100 µM | > 100 µM | > 100 µM |  |  |  |  |  |  |  |  |  |  |  | 
7 | C1COCCN1.C1COCCN1.N.N.[Cl-].[Pt+2] | > 100 µM |  | > 100 µM | > 100 µM |  | > 100 µM | > 100 µM | > 100 µM |  |  |  | > 100 µM | > 100 µM |  |  |  | > 100 µM | > 100 µM | > 100 µM | > 100 µM
8 | CCOC(=O)C1=C(C)Nc2ccccc2S1 | > 100 µM | > 100 µM | > 100 µM | > 100 µM | > 100 µM | > 100 µM | > 100 µM | > 100 µM |  |  |  |  |  |  |  |  |  |  |  | 
9 | CSC1=NC=CCN1C | > 100 µM | > 100 µM | > 100 µM | > 100 µM | > 100 µM | > 100 µM | > 100 µM | > 100 µM |  |  |  |  |  |  |  |  |  |  |  | 
